This note sets out measurements from PMC6525029 (ACS synthetic biology, 2019).

Assay [1] addresses αvβ3 integrin (Homo sapiens, UniProt P05106+P06756). Kind of assay: Fluorescence polarization. It is filed as binding.
The target in assay [2] is T1, αvβ3 integrin, P06756.
T1 chain 1: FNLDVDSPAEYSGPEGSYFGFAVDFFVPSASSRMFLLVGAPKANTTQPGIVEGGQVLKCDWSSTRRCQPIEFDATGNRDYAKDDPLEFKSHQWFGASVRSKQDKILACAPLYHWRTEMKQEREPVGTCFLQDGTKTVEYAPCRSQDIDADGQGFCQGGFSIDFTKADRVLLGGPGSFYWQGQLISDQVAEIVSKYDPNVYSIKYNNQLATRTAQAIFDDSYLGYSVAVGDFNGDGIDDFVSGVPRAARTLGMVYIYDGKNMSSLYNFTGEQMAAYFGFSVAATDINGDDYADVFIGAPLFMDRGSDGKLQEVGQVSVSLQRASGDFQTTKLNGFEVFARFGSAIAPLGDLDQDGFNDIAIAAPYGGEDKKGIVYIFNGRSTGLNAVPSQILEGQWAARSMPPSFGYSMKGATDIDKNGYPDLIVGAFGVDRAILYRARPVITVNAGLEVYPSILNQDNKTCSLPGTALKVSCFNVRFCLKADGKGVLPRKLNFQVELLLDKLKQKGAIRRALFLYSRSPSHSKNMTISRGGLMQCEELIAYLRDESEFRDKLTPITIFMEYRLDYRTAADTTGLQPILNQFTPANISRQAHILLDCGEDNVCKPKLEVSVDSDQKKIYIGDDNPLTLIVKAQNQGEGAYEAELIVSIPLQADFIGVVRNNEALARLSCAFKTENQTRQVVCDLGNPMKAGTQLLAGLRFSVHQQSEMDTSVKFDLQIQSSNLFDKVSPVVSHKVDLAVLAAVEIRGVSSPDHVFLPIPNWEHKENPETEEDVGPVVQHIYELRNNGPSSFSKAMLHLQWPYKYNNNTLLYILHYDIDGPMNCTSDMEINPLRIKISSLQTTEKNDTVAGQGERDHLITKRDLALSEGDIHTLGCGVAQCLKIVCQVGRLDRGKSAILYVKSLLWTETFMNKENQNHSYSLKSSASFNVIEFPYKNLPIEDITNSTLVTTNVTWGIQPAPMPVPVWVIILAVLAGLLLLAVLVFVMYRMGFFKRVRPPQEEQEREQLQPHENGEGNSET
T1 chain 2: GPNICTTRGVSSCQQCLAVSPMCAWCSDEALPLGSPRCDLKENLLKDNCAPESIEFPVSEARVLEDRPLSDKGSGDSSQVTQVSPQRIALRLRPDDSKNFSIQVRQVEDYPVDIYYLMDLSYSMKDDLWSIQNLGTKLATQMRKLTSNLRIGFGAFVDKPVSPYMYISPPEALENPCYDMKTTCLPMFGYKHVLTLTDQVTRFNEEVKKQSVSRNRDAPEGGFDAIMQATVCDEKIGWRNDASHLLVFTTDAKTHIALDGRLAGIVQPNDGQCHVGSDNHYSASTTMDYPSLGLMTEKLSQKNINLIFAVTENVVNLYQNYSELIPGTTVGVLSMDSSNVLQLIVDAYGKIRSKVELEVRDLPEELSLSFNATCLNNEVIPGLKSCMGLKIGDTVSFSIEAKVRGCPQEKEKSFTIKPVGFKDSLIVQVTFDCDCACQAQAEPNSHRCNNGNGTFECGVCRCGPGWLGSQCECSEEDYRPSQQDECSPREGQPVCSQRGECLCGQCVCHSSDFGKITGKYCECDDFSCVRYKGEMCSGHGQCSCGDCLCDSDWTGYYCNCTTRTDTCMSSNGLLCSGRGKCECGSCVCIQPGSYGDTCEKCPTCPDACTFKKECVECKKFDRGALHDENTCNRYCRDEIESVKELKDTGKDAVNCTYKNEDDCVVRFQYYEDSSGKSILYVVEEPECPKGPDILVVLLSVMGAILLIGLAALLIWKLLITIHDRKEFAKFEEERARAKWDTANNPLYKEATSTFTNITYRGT
Kind of assay: fluorescence polarisation.

In assay [1], `CSCC[C@H](NC(=O)[C@H]1CSC[C@H](NC(=O)[C@H](C)NC(=O)[C@H](C)N)C(=O)N[C@@H](Cc2c[nH]cn2)C(=O)N[C@@H](CCCNC(=N)N)C(=O)NCC(=O)N[C@@H](CC(=O)O)C(=O)N2CCC[C@H]2C(=O)N1)C(=O)N1CCC[C@H]1C(=O)N1CCC[C@H]1C(=O)N[C@@H]1CSC[C@@H](C(=O)O)NC(=O)[C@H](CCC(=O)O)NC(=O)CNC(=O)[C@H](CCC(=O)O)NC(=O)[C@H](Cc2c[nH]c3ccccc23)NC(=O)[C@H](Cc2ccc(O)cc2)NC1=O` [Pcn2.8(5RGD)] displayed an inhibition constant (Ki) of more than 2000 nM. In addition, in assay [1] (FP competition experiment, Figure 5 legend), the “binding to the αvβ3 integrin (in words)” value is reported as “poor binding”.

B1: linear/unmodified Pcn2.8(16RGD) core peptide (peptide)
chain: CHNHAPSMPPSYWRGDC
modifications: not checked
The molecule B1 showed a Ki in assay [2] of 18 nM.
